Test results reported in patent publication US7385039B2, “Methods and compositions for regulating imidazoline receptors” (priority 1998, dated 2008).
Values joined by “and” are separate entries in the source; they are usually repeats but may differ in a detail not shown here. Equal entries are not always repeated. “Also recorded” adds a separate entry of the source. Where two headings read alike, the source gives them in different places. Blank lines part the entries; values can stand above or below the molecule they belong to.

Experiments:
Imidazoline I Sites = test: [125I]p-iodoclonidine competition binding to bovine RVLM membranes, imidazoline sites
Excerpt: (§1) Whole bovine brains and adrenal glands were obtained from a local slaughterhouse. Brains were immediately placed on a chilled glass plate, washed with ice-cold Krebs'-Henseleit buffer, and dissected. The rostral medulla was isolated by transecting the brainstem rostrally at the posterior margin of the trapezoid body and caudally 1 cm caudal to the obex. The pia-arachnoid was removed, and the lateral medulla was isolated by a sagittal section through the lateral margin of the pyramids, and then bisected. The ventral half was defined as the ventrolateral medulla (VLM). Brain samples were transported on ice to the laboratory and processed immediately.
(§2) Fresh bovine VLM was homogenized by using a polytron (Tekmar Tissuemizer, setting 80 for 2×15 sec) in 20 volumes of ice-cold Hepes-buffered isotonic sucrose (pH brought to 7.4 with Tris base) containing the protease inhibitors (1,10)-phenanthroline (100 μM) and phenylmethylsulfonyl fluoride (50 μM) in order to inhibit degradation of receptor protein. Bovine adrenomedullary cells were homogenized in 15 ml Hepes-buffered isotonic sucrose by 10 strokes in a glass-glass hand-held homogenizer. All three homogenates were centrifuged at 1000×g for 5 min at 4° C. to remove nuclei and debris. The pellets (P1) were resuspended in 20 ml of homogenization buffer, and centrifuged again at 1000×g for 5 min. The combined supernatants were centrifuged at 48,000 g for 18 min at 4° C., and the resulting P2 pellet was resuspended in 10 to 25 volumes of 50 mM Tris-HCl buffer (pH 7.7) containing 5 mM EDTA. After recentrifugation at 48,000 g for 18 min, the resulting membrane pellet was resuspended in Tris-HCl containing 25 mM NaCl, preincubated for 30 min at 25° C., chilled on ice, centrifuged again, resuspended a final time in Tris-HCl alone, centrifuged, flash-frozen, and stored at −70° C. for up to three months.
(§3) Radioligand binding assays with [^3H]clonidine or [^125I]p-iodoclonidine for determination of specific membrane binding to VLM and renal medulla imidazoline sites and α2-adrenergic receptors were performed by a modification of methods previously described (Ernsberger P. et al., 1997, J. Hypertension 1997, 15:S9-S23). Membranes were slowly thawed and resuspended in Tris-Hepes buffer (5.0 mM; pH 7.7 at 25° C., containing 0.5 mM EDTA, 0.5 mM EGTA, and 0.5 mM MgCl2) at a concentration of 1 mg protein/ml for the VLM, 4 mg protein/ml for the renal medulla, and 0.2 mg protein/ml for adrenomedullary cells. Assays were conducted in a total volume of 250 μl in polypropylene 96-well plates (Beckman Macrowell), and each well contained 125 μl membrane suspension, 25 μl radioligand, and 100 μl drug or vehicle. Incubations were initiated by the addition of membrane and were carried out for 30 min at 22° C. Nonspecific binding was defined in the presence of 10 μM BDF-6143, an imidazoline adrenergic agent. Specific α2-adrenergic binding was defined by inhibition with (−)epinephrine (0.1 mM). In experiments using catecholamines, all samples contained ascorbic acid in a final concentration of 0.001%. Incubations were terminated by vacuum filtration using a cell harvester (Brandel) equipped with Teflon tubing to reduce absorption of the radioligand over glass fiber filters (Schleicher & Schuell #34) which were preincubated for 4 h at 4° C. in 0.03% polyethylimine to reduce nonspecific binding to the filter. The filters were washed four times with 5 ml ice-cold Tris-HCl, placed in scintillation vials, covered with 4 ml scintillation cocktail (BioSafe II, Research Products International), and counted at 50% efficiency (Beckman LS5801). Protein was assayed by the bicinchoninic acid method.
(§4) Data were obtained as dpm and transferred to the Equilibrium Binding Data Analysis (EBDA) program for initial processing; 4 to 10 experiments were analyzed simultaneously by using the LIGAND program for nonlinear curve-fitting. Protein assay data were also analyzed by nonlinear curve-fitting.
(§5) Competition binding assays. […]

I1R = I1R model: [3H]arachidonic acid release from PC-12 cells; type: cell-based; settings: for stimulation of [3H]AA release (in words): IAA-R 10 μM-1 mM
Method: Assays for measuring imidazoline receptor-mediated arachidonic acid release from PC12 cells is as described in Ernsberger et al., (1995, FASEB J. 9:A114).
I1R model: [^3H]Arachidonic acid (AA) release from PC-12 cells. Assays (Emsberger, P. (1998) J. Auton. Nerv. Syst. 72, 147-154 Ernsberger, P. (1998) J. Auton. Nerv. Syst. 72, 147-154) were done after a 30 min washout to attain a stable background. Cells were superfused with 0.01% BSA in Krebs buffer for seven 1-min fractions (baseline), then treated with 10 μM or 100 μM I-4-AA-RP alone, or together with efaroxan (10 μM), a prototypical I1-antagonist/I3-agonist. Controls included baseline release with vehicle alone (0-7 min) or vehicle containing efaroxan (5 min) before adding I-4-AA-RP. [^3H]products (>98% AA) collected in each 1-min fraction were expressed as fractional release defined as % total radioactivity incorporated into cells, corrected for [^3H]AA previously released (Ernsberger, P. (1998) J. Auton. Nerv. Syst. 72, 147-154).

I3R [1] = test: I3R model: insulin release from rat islets of Langerhans; type: cell-based
Method: (§6) Islets of Langerhans from male Wistar rats were isolated by collagenase digestion in a medium of bicarbonate-buffered physiological saline solution containing 4 mM D-glucose and 1 mM CaCl2. Islets were selected under a binocular dissecting microscope and were used within two hours of isolation. Islets from humans were isolated from heart-beating cadaver organ donors by collagenase digestion and density gradient centrifugation (Chan, S. L. F., et al., 1997, Brit. J. Pharmacol. 120:926-932).
Incubations were done in 96-well plates. Isolated islets were incubated in 100 μl buffer solution supplemented with bovine serum albumin in humidified air: CO2 (95:5%) at 37° C. in the presence of test agents. To eliminate any potential alpha-2 responses, yohimbine (10 μM), a potent alpha2-adrenergic blocker, was included in all incubations. After 60 min incubation, samples of medium were removed for measurement of insulin release by radioimmunoassay using anti-bovine insulin antiserum. Presence of insulin in the test media were compared to controls; positive differences represented amounts of insulin released. In reversal experiments, diazoxide (e.g., 200 μM) was pre-incubated to block glucose-induced insulin release. In these studies, test reagents were used to determine if they were capable of overcoming diazoxide's inhibitory effects on K+ ATP channels, a well known action of imidazoline secretagogues in islet cells. For example, efaroxan (an inhibitor of I-1 responses in adrenal medullary cells) is a well known I-3 agonist, i.e., it stimulates (at 100 μM) release of insulin and overcomes diazoxide inhibition thus illustrating again the dictomy between I1 and I3 receptor subtypes.
I3R model: Insulin release from pancreas (Eglen, R. M., Hudson, A. L., Kendall, D. A., Nutt, D. J., Morgan, N. G., Wilson, V. G. & Dillon, M. P. (1998) TIPS 19, 381-390; Chan, S. L. F. (1998) Gen. Pharmacol. 31, 525-529; Morgan, N. G. (1999) Exp. Opin. Invest. Drugs 8, 575-584). Islets of Langerhans from male Wistar rats or human pancreata were isolated by collagenase digestion. Hand-picked islets were incubated in NaHCO3-buffered saline containing 1 mM CaCl2, 1 mg/ml BSA and test reagents. After incubation, insulin levels in supernatants were analyzed by RIA. The I3-blocker, KU-14R, served to verify I3R function.

SH rats = test: Mean arterial pressure and heart rate after microinjection into the RVLM of rats; type: in vivo, rat
Method: Effects of ribotide on mean arterial pressure (MAP) and heart rate (HR). Bilateral I-4-AA-RP microinjections (60 nl, 100 nmol) into the RVLM of SH rats were performed (Emsberger, P. & Haxhiu, M. A. (1997) Am. J. Physiol. 273, R1572-R1579) after the sympatho-excitatory area was confirmed by showing glutamate-induced MAP elevation ≧30 mm Hg. MAP and HR values were measured every 5 min. After each experiment, the injection site was marked by infusion of rhodamine microspheres. Changes were assessed relative to baseline values by two-way repeated measures ANOVA and Dunnett's test. A second group of SH rats (injection controls) received vehicle injections to control for injection effects and for volume artifacts due to multiple injections. Vehicle contained 2 nmol rilmenidine, a sub-threshold dose, far below that known to cause any detectable effect (Gomez, R. E., Emsberger, P., Feinland, G. & Reis, D. J. (1991) Eur. J. Pharmacol. 195, 181-191). In a follow-up study, SH rats (N=6) were given I-4-AA-RP then moxonidine. When used alone, it reduces MAP to normotensive levels (Emsberger, P., Elliott, H. L., Weimann, H.-J., Raap, A., Haxhiu, M. A., Hofferber, E., Low-Kroger, A., Reid, J. L. & Mest, H. J. (1993) Cardiovas. Drug Rev. 11, 411-431).

α2-Adrenergic Sites = test: [125I]p-iodoclonidine competition binding to bovine RVLM membranes, α2-adrenergic sites; settings: for Ki: read-out: Ki, α2-Adrenergic Sites (low affinity sites)
Excerpt: as §1, §2, §3, §4, §5

I3R [2] = test: I3R model: insulin release from human islets; type: cell-based
Method: as §6
Incubations were done in 96-well plates. Isolated islets were incubated in 100 μl buffer solution supplemented with bovine serum albumin in humidified air: CO2 (95:5%) at 37° C. in the presence of test agents. To eliminate any potential alpha-2 responses, yohimbine (10 μM), a potent alpha2-adrenergic blocker, was included in all incubations. After 60 min incubation, samples of medium were removed for measurement of insulin release by radioimmunoassay using anti-bovine insulin antiserum. […]
I3R model: Insulin release from pancreas (Eglen, R. M., Hudson, A. L., Kendall, D. A., Nutt, D. J., Morgan, N. G., Wilson, V. G. & Dillon, M. P. (1998) TIPS 19, 381-390; Chan, S. L. F. (1998) Gen. Pharmacol. 31, 525-529; Morgan, N. G. (1999) Exp. Opin. Invest. Drugs 8, 575-584). […] After incubation, insulin levels in supernatants were analyzed by RIA. […]

β-TC3 cells = test: Insulin release from insulinoma cells in culture; type: cell-based
I3R [3] = settings: cited from earlier work
[4] = With cimetidine (I-sites masked)

Ki (Imidazoline I Sites; bovine RVLM membranes, [125I]PIC, read-out: K1 in RVLM, parallel assays): 266 ± 48 µM
SMILES: O=C(O)Cc1cn([C@@H]2O[C@H](CO)[C@@H](O)[C@H]2O)cn1 [IAA-R, 1-(β-D-ribofuranosyl)-imidazole-4-acetic acid]
stimulation of [3H]AA release (in words) (I1R): no significant response
reversal of the inhibitory action of diazoxide on glucose-induced insulin release (I3R [1]): able to reverse the inhibitory action of diazoxide
activity relative to IAA-RP's maximal activity on insulin release (I3R [1]; paired experiment, pancreatic beta cells): < 50%
stimulation of insulin release (in words) (I3R [1]; rat islets): potent stimulants of insulin release
change of heart rate (HR) (SH rats; SH rats, 100 nmol into RVLM): did not alter MAP or HR significantly
effect on MAP (in words) (SH rats; SH rats, 100 nmol into RVLM): did not alter MAP or HR significantly

affinity of high-affinity RVLM sites relative to low-affinity RVLM sites and adrenal I1R sites (Imidazoline I Sites): > 100 fold
fold greater affinity than IAA-R in displacing [125I]p-iodoclonidine (Imidazoline I Sites): > 100 fold
Percent Sites, Imidazoline I Sites (high affinity component) (Imidazoline I Sites; Control (no masking ligand)): 71% and 71±5%
Ki (Imidazoline I Sites; Control (no masking ligand), read-out: Ki, Imidazoline I Sites): 0.16 ± 0.038 µM
selectivity for I-Rs over α2-sites (Imidazoline I Sites; RVLM): > 1000 fold
Percent Sites, Imidazoline I Sites (high affinity component) (Imidazoline I Sites; With epinephrine (α2Rs masked)): 86% and 86±4%
Ki (Imidazoline I Sites; With epinephrine (α2Rs masked), read-out: Ki, Imidazoline I Sites): 0.1 ± 0.019 µM
Percent Sites, α2-Adrenergic Sites (α2-Adrenergic Sites; Control (no masking ligand)): 29 ± 5%
Ki (α2-Adrenergic Sites; Control (no masking ligand)): 57 ± 33 µM
Percent Sites, α2-Adrenergic Sites (α2-Adrenergic Sites; [4]): 100 ± 10%
Ki (α2-Adrenergic Sites; [4]): 210 ± 32 µM
Percent Sites, α2-Adrenergic Sites (α2-Adrenergic Sites; With epinephrine (α2Rs masked)): 14 ± 4%
Ki (α2-Adrenergic Sites; With epinephrine (α2Rs masked)): 60 ± 48 µM
fold lower affinity of remaining (low affinity) sites versus high affinity component (α2-Adrenergic Sites; no masking ligands): > 300 fold
EC50 (I3R [1]; rat islets, glucose 20 mM and diazoxide 200 μM): 0.03 to 0.05 µM
EC50 (I3R [2]): ~0.003 µM
SMILES: O=C(O)Cc1cn(C2OC(COP(=O)(O)O)C(O)C2O)cn1 [IAA-RP, 1-(β-D-ribofuranosyl)-imidazole-4-acetic acid 5′ phosphate]
increase of [3H]AA release (I1R; 10 μM): 68±29%
increase of [3H]AA release (I1R; 100 μM): 177±89%
stimulation of [3H]AA release (in words) (I1R): stimulated release of arachidonic acid
reversal of the inhibitory action of diazoxide on glucose-induced insulin release (I3R [1]): overcame inhibitory effects of the KATP-channel agonist, diazoxide
reversal of the inhibitory action of diazoxide on glucose-induced insulin release (I3R [1]; listed as tele-linked IAA-RP): able to reverse the inhibitory action of diazoxide
stimulation of insulin release (in words) (I3R [1]; rat islets): potent stimulants of insulin release; also recorded: increased insulin secretion from islets; also recorded: far more potent than efaroxan
rise of MAP over baseline (SH rats; SH rats, 100 nmol bilateral microinjection into RVLM): ~25 mm Hg
change of heart rate (HR) (SH rats; SH rats, 100 nmol into RVLM): no significant changes
MAP elevation above baseline (SH rats; SH rats, after six 100 nmol doses): 20.4±5.6%
stimulation of insulin release (β-TC3 cells): capable of stimulating insulin release

SMILES: COc1nc(C)nc(Cl)c1N=C1NCCN1 [MOX, moxonidine, reference compound]
lowering of MAP (SH rats; SH rats with IAA-RP-elevated MAP, 4 nmol, within 30 min): 37.3±6.3%
reversal of IAA-RP's hypertensive effect (SH rats; SH rats, 4 nmol microinjected): completely reversed IAA-RP's effect

SMILES: CCC1(C2=NCCN2)Cc2ccccc2O1 (stereo not shown) [efaroxan, reference compound]
blockade of IAA-RP-induced [3H]AA release (I1R; efaroxan 10 μM, before and throughout IAA-RP superfusion): abolished responses to IAA-RP; also recorded: blocked IAA-RP-induced release
concentration of maximal stimulation of insulin release (I3R [3]): ~100 µM

SMILES: O=C(O)Cc1cncn1[C@@H]1O[C@H](CO)[C@@H](O)[C@H]1O [pros-IAA-R, 1-(β-D-ribofuranosyl)-imidazole-5-acetic acid]
reversal of the inhibitory action of diazoxide on glucose-induced insulin release (I3R [1]): able to reverse the inhibitory action of diazoxide
stimulation of insulin release (in words) (I3R [1]; rat islets): effects similar to or even greater than that seen with tele IAA-RP

SMILES: CCC1(c2ncc[nH]2)Cc2ccccc2O1 (stereo not shown) [KU-14R, reference compound]
blockade of IAA-RP-induced insulin secretion (I3R [1]; KU-14R 100 μM, IAA-RP 1 μM, diazoxide 200 μM): abolished IAA-RP-induced secretion
